Values quoted from earlier work, collected in patent publication US9393439B2, “Radiotherapy combined with hypoxic cell sensitizers” (IntraOp Medical Corporation, priority 2010, dated 2016).

Conditions: patients, single dose administration; above this level the incidence of side effects increases

O=C(Cn1ccnc1[N+](=O)[O-])NCCO [Etanidazole, etanidazole]
maximum tolerated dose (dose that may safely be given): 12 gm/m^2
